Data set [1] relates to NHBE (normal human bronchiolar epithelial cells). The experiment in a line: cells. The note with it: Homo sapiens, NHBE, read-out: IC50(uM) NHBE, phenylfuran-2-carboxamide SAR summary. The protocol: (§1) NHBE (normal human bronchiolar epithelial cells) are primary cells obtained from donor lungs and commercially available from Cambrex. The HPL1D (human peripheral lung epithelial) cell line has been immortalized with the SV40 large T-antigen. WI-38: human lung fibroblast cell line. HPLID, NHBE and WI-38 cells will serve as controls in the chemical screens. WT: wildtype; WT*: over-expressed wildtype.
(§2) Compounds were tested in dose response studies from […] to 5 nM against several non small cell lung cancer lines: H358, H827, H1118, H1650, H1734, H1975, H2030, and H3255, and were also studied in a 72 hour cytotoxicity assay against the NHBE and WI-38 cell lines.

A further data set relates to H1650. The experiment in a line: Non Small Cell Lung Cancer proliferation assay (Alamar Blue reduction), H1650. It is filed as cell-based, human. The note with it: for inhibition at 10 µM: NCI-H1650, primary screening, H1650, read-out: PRIMARY HTS [%] H1650 (percentage inhibition); for inhibition at 10 µM / CONFIRMATION [%] 1650: 10 μM compound in 1% DMSO (v/v); for CONFIRMATION [%] 1650: percentage inhibition. In a few lines: (§3)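 Dose-response run: cells were counted, dispensed at 250 cells/well onto compound, incubated 48 hours at 37° C, then incubated with Alamar Blue for an additional 48 hours before fluorescence measurement. All wells held 1% DMSO final.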

The subject of the next data set is H2030. The experiment in a line: Non Small Cell Lung Cancer proliferation assay (Alamar Blue reduction), H2030. The data set is classed as cell-based, human. The conditions noted are these: for IC50 / inhibition at 10 µM: Homo sapiens; for inhibition at 10 µM: NCI-H2030, primary screening, H2030, read-out: PRIMARY HTS [%] H2030 (percentage inhibition); for inhibition at 10 µM / CONFIRMATION [%] 2030: 10 μM compound in 1% DMSO (v/v); for CONFIRMATION [%] 2030: percentage inhibition. The method, boiled down: as §3

For another data set, the system named is H1975. Description: Non Small Cell Lung Cancer proliferation assay (Alamar Blue reduction), H1975. The conditions noted are these: for IC50 / inhibition at 10 µM: Homo sapiens; for inhibition at 10 µM: NCI-H1975, primary screening, H1975, read-out: PRIMARY HTS [%] H1975 (percentage inhibition); for inhibition at 10 µM / CONFIRMATION [%] 1975: 10 μM compound in 1% DMSO (v/v); for CONFIRMATION [%] 1975: percentage inhibition. It is filed as cell-based, human. In a few lines: as §3

For another data set, the system named is H3255. The experiment in a line: Non Small Cell Lung Cancer proliferation assay (Alamar Blue reduction), H3255. The data set is classed as cell-based, human. The conditions noted are these: for IC50 / inhibition at 10 µM: Homo sapiens; for inhibition at 10 µM: NCI-H3255, primary screening, H3255, read-out: PRIMARY HTS [%] H3255 (percentage inhibition); for inhibition at 10 µM / CONFIRMATION [%] 3255: 10 μM compound in 1% DMSO (v/v); for CONFIRMATION [%] 3255: percentage inhibition. In a few lines:
as §3

Another data set has as its system H1118. The experiment in a line: Non Small Cell Lung Cancer proliferation assay (Alamar Blue reduction), H1118. The note with it: Homo sapiens; read-out: Dose Response (uM) H1118. It is filed as cell-based. The protocol: (§4) Non Small Cell Lung Cancer Proliferation Assay. To perform the assay, the Non Small Cell Lung Cancer lines are diluted in media and plated into 384 well microplates at a final density of 250 cells in […]. To ensure consistency and minimal pipetting error, the cells are plated using the Multidrop 384 with the following settings: Rocker Switch set at 384, Volume 45 and Column 24.
(§5) Low Controls for this assay are made by treating Non Small Cell Lung Cancer cells with 5 ul of staurosporine at 250 uM in 10% DMSO and 1% SDS. [Final concentration in this assay is 25 uM staurosporine in 1% DMSO and 0.1% SDS.]
(§6) High Controls for this assay are made by treating Non Small Cell Lung Cancer cells with 5 ul of 10% DMSO. [Final concentration in this assay is 1% DMSO].
(§7) The remaining wells of the 384 microplate may be treated with different compounds depending on the study. Important Note: All compounds for testing in this assay should be done at the final concentration of 1% DMSO.
(§8) After addition, the cells are placed in cell culture incubator at 37° C. for 48 hours for complete treatment.
(§9) After drug treatment, cytotoxicity is measured by Alamar Blue reduction. 5 μL of Alamar Blue is added to the 384 microplates using the Flexdrop.
(§10) The cells are incubated for 48 hours at 37° C. to complete the Alamar Blue reduction.
(§11) The final step in the assay is to measure the amount of Alamar Blue reduction. […] The Alamar Blue fluorescence is measured at an excitation of 530 nm and emission of 590 nm.
(§12) For the NSCLC project, the cell based assay was screened against a small molecule library of approximately 200,000 compounds. The compound library is stored in our automated robotic freezer (Biophile) at −20° C. in 100% DMSO. Compound freeze and thaw cycles are kept to a minimum. Compounds for use are diluted into the appropriate concentration and plated into 384 well microplates using our custom built low volume 384-well head tool (TPS 384, Apricot Designs Inc., CA, USA). This assay was performed on a fully automated linear track robotic platform (CRS F3 Robot System, Thermo Electron Corp., Ontario, Canada) utilizing several integrated peripherals for plate handling, liquid dispensing, and readout detection. First, non-small cell lung cancer cell lines are dispensed into 384 well microplates (Corning #3712 Tissue Culture Treated Plate, Corning, N.Y., USA) with 5 μL of test compounds at 100 uM in 10% DMSO for screening studies or 1 mM in 10% DMSO to 50 nM in 10% DMSO for dose response studies. The microplates are then placed at 37° C. for 48 hours to complete treatment of cells with compounds. Next, 5 ul of alamar blue was added using a liquid dispenser (Flexprop Precision Dispenser, Perkin Elmer, Mass., USA) and incubated for 48 hours at 37° C. The alamar blue prompt fluorescence was measured on Victor V (Victor^3 V, Perkin Elmer, Mass., USA) and output data files were loaded into ORIS (Oncology Research Informatics System, MSKCC, NY, USA), a screening data acquisition and analysis platform.
(§13) The dose response studies were done with the following standard procedure. First, the cells were counted and dispensed at 250 cells/well into 384-well microplates with compound. The cells were incubated for 48 hours at 37 C to complete treatment, and then alamar blue was added for an additional 48 hours. Finally, alamar blue reduction was measured and the data was loaded into ORIS, our data screening acquisition platform.

Another data set can be described thus: in vitro. The conditions noted are these: human. The protocol:
as §1, §2

The next data set relates to H358. Description: Non Small Cell Lung Cancer proliferation assay (Alamar Blue reduction), H358. The note with it: Homo sapiens, NCI-H358; read-out: Dose Response (uM) H358. The data set is classed as cell-based. The protocol:
(§14) These cells have a doubling time of 1-2 days. All cell types are adherent and grow in colonies. The cells should be kept at a density between 50,000 cells/mL -500,000 cells/mL to provide for optimum growth and adequate nutrition. The cell line should be maintained at 37° C. in a humidified atmosphere with 5% CO2 in a sterile cell culture incubator.
(§15) Non Small Cell Lung Cancer Proliferation Assay.
as §6
(§16) Important Note: All compounds for testing in this assay should be done at the final concentration of 1% DMSO.
as §8
(§17) After drug treatment, cytotoxicity is measured by Alamar Blue reduction.
as §10, §11
as §12, with “Compounds for use are diluted into the appropriate concentration and plated into 384 well microplates using our custom built low volume 384-well head tool (TPS 384, Apricot Designs Inc., CA, USA).” left out, “First, non-small cell lung cancer cell lines are dispensed into 384 well microplates (Corning #3712 Tissue Culture Treated Plate, Corning, N.Y., USA) with 5 μL of test compounds at 100 uM in 10% DMSO for screening studies or 1 mM in 10% DMSO to 50 nM in 10% DMSO for dose response studies.” left out
as §13

Another data set deals with H1734. The experiment in a line: Non Small Cell Lung Cancer proliferation assay (Alamar Blue reduction), H1734. It is filed as cell-based, human. The note with it: Homo sapiens, NCI-H1734; read-out: Dose Response (uM) H1734. The protocol: as §14, §15, §6, §16, §8, §17, §10, §11
as §12, with “Compounds for use are diluted into the appropriate concentration and plated into 384 well microplates using our custom built low volume 384-well head tool (TPS 384, Apricot Designs Inc., CA, USA).” left out, “First, non-small cell lung cancer cell lines are dispensed into 384 well microplates (Corning #3712 Tissue Culture Treated Plate, Corning, N.Y., USA) with 5 μL of test compounds at 100 uM in 10% DMSO for screening studies or 1 mM in 10% DMSO to 50 nM in 10% DMSO for dose response studies.” left out
as §13

Another data set concerns H827. The experiment in a line: Non Small Cell Lung Cancer proliferation assay (Alamar Blue reduction), H827. The data set is classed as cell-based. The note with it: Homo sapiens; read-out: Dose Response (uM) H827. The protocol: […] are grown and maintained in Corning 175 cm2 flasks in RPMI 1640 media supplemented with 10% FBS, 1% antibiotic solution, 1% additional glutamine and pyruvate. These cells have a doubling time of 1-2 days. All cell types are adherent and grow in colonies. The cells should be kept at a density between 50,000 cells/mL -500,000 cells/mL to provide for optimum growth and adequate nutrition. The cell line should be maintained at 37° C. in a humidified atmosphere with 5% CO2 in a sterile cell culture incubator.
as §4, §5, §6, §7, §8, §9, §10, §11, §12

[2] abbreviates: Homo sapiens, NCI-H1650, phenylfuran-2-carboxamide SAR summary, read-out: IC50(uM) 1650.
Where [3] appears, read: Homo sapiens, NCI-H1650, dose response 10 M to 5 nM, IC50, read-out: Dose Response (uM) H1650.
The mark [4] stands for this setting: NCI-H2030, dose response 10 M to 5 nM, IC50, read-out: Dose Response (uM) H2030.
The mark [5] stands for this setting: NCI-H1975, dose response 10 M to 5 nM, IC50, read-out: Dose Response (uM) H1975.
Setting [6] is: NCI-H3255, dose response 10 M to 5 nM, IC50, read-out: Dose Response (uM) H3255.

“And” between values parts separate entries of the source, which are not always exact repeats. Identical values can stand only once. Like-named read-outs stand apart in the source and are kept apart here.

On to `O=C(NC1CCCCC1)c1ccc([N+](=O)[O-])o1` [compound 71763], for which the IC50 in data set [1] turned out to be 24.9 µM; in the data set on H1650 (setting [2]), 1.39 µM; in the data set with H2030 (NCI-H2030, phenylfuran-2-carboxamide SAR summary, read-out: IC50(uM) 2030), 3.79 µM; in the data set with H1975 (NCI-H1975, phenylfuran-2-carboxamide SAR summary, read-out: IC50(uM) 1975), 3.54 µM; in the data set with H3255 (NCI-H3255, phenylfuran-2-carboxamide SAR summary, read-out: IC50(uM) 3255), 2.98 µM. Further, the inhibition at 10 µM in the data set on H1650 (Homo sapiens) turned out to be 87%; with H2030, 82%; with H1975, 61%; in the data set on H3255 it was 77%. For the same compound, the “CONFIRMATION [%] 1650” value with H1650 was 136%. Besides, the “CONFIRMATION [%] 2030” value with H2030 came to 97%. Also, the “CONFIRMATION [%] 1975” value with H1975 stood at 74%. The “CONFIRMATION [%] 3255” value in the data set on H3255 is recorded as 135%.
As for `O=C(Nc1ccc(Cl)cc1C(F)(F)F)c1ccc([N+](=O)[O-])o1` [compound 64228], the IC50 in data set [1] was found to be 13.2 µM; in the data set on H1650 (setting [2]), 1.6 µM; in the data set with H1650 (phenylfuran-2-carboxamide SAR summary, read-out: IC50(uM) 1650) it was 2.31 µM. Besides, the inhibition at 10 µM with H1650 (Homo sapiens) came to 87%; in the data set with H2030, 93%; in the data set with H1975, 82%; with H3255, 91%. Also, the “CONFIRMATION [%] 1650” value in the data set with H1650 was 111% and 107%. In the data set with H2030, the “CONFIRMATION [%] 2030” value was 90% and 105%. The “CONFIRMATION [%] 1975” value in the data set with H1975 is 70% and 97%. In addition, in the data set with H3255, the “CONFIRMATION [%] 3255” value was 97%.
As to `O=c1c(Cl)c(SCc2ccccc2)cnn1-c1ccccc1` [compound 257022], the IC50 in the data set with H1118, in the data set on H358, with H1734, in the data set on H1650 (setting [3]), in the data set on H2030 (setting [4]) and in the data set on H1975 (setting [5]) was above 10 µM throughout. Besides, the IC50 with H3255 (setting [6]) and in the data set with H827 was above 10 µM throughout. Besides, the IC50 at 72 h in “in vitro” (CytoTox (uM) NHBE) and in “in vitro” (CytoTox (uM) WI-38) was above 10 µM each time.
As for `O=c1c(Br)c(SCc2ccccc2)cnn1-c1ccccc1` [compound 257021], the IC50 with H1118, with H358, with H1734, with H1650 (setting [3]), with H2030 (setting [4]) and in the data set with H1975 (setting [5]) was above 10 µM each time. In addition, the IC50 with H3255 (setting [6]) and with H827 was above 10 µM in each case. The IC50 at 72 h in “in vitro” (CytoTox (uM) NHBE) and in “in vitro” (CytoTox (uM) WI-38) was above 10 µM each time.

For the origin of these results see patent publication US20100210649A1, “PYRIDAZINONES AND FURAN-CONTAINING COMPOUNDS” (Sloan-Kettering Institute for Cancer Research, priority 2006, published 2010).
